According to US12662491B2 (Redona Therapeutics, Inc., priority 2020, dated 2026):
pIC50: −log10 of the molar value. Read-outs that look alike come from different tables or passages of the source.

Molecular target: T1, Zcchc11 enzyme (Homo sapiens, UniProt Q5TAX3)
T1 construct: made in house; host or cells: HEK293 cells (Zcchc11); E. coli Rosetta II (LIN28A)
T1 sequence (Q5TAX3 212-1420): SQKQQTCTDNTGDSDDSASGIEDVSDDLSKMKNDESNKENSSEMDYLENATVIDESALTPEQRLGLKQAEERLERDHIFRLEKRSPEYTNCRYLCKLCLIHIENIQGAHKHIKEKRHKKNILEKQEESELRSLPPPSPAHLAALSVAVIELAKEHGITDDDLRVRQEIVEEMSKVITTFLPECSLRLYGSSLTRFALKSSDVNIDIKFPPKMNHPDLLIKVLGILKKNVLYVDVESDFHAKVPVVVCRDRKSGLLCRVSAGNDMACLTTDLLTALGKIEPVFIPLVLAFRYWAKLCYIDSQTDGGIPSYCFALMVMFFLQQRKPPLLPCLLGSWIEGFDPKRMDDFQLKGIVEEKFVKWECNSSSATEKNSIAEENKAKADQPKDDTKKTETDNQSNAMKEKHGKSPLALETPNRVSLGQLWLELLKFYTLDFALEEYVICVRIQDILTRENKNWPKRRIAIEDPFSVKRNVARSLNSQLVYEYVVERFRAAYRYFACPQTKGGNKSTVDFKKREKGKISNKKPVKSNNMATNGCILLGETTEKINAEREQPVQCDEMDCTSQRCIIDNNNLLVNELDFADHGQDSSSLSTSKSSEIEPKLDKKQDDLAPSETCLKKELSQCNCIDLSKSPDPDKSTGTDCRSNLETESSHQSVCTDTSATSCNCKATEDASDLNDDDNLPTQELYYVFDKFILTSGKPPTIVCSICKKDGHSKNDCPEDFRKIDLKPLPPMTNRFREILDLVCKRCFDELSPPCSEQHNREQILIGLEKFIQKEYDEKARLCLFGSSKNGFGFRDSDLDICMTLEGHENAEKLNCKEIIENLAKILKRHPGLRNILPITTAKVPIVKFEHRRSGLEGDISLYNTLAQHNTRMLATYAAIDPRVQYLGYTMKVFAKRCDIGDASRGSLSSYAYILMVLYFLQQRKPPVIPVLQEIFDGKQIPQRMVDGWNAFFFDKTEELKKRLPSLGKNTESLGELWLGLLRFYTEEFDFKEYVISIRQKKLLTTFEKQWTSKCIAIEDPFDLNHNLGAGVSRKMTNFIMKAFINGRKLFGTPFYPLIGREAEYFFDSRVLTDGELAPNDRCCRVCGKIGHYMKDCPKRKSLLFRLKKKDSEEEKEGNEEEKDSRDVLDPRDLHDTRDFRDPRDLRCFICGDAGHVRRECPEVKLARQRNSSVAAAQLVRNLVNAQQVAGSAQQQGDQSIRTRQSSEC
Test: TUTase assay (Zcchc11 assay, Lin28a-dependent polyuridylation of pre-let-7)
Format: biochemical
Conditions: read-out: Potency Lin28a-dep Z11 IC50
Summary of the method: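 Human Zcchc11 residues 212-1420 (HEK293-expressed, MBP tag cleaved, C-terminal FLAG) at 0.2 nM, with 10 nM full-length human LIN28A and 2 nM 5′-fluorescein pre-let-7, preincubated with compound 30 min at room temperature. Reaction started with 5 uM UTP plus 4 nM 3′-rhodamine A20 quench probe; fluorescein loss read kinetically, IC50 from initial rates.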

pIC50 (Lin28a-dependent Zcchc11 (Z11) TUTase activity) | pIC50 (LIN28A 10 nM, Zcchc11 0.2 nM, 5′-fluorescein pre-let-7 miRNA 2 nM, UTP 5 uM, room temperature, 30 minutes pre-incubation) | Compound
≥ 6.00 | – | CN(C)C1CN(c2ccc(-n3cc(C(=O)O)c(=O)c4cc(Cl)c(N5CCC[C@@H]5COc5nc6ncn(C)c6cc5Cl)cc43)cn2)C1 [Compound 273, (R)-6-chloro-7-(2-(((6-chloro-1-methyl-1H-imidazo [4,5-b]pyridin-5-yl)oxy)methyl)pyrrolidin-1-yl)-1-(6-(3-(dimethyl-amino)azetidin-1-yl)pyridin-3-yl)-4-oxo-1,4-dihydro-quinoline-3-carboxylic acid formic acid]
– | 5.00 to 6.00 | O=C(O)c1cn(-c2cncc(O)n2)c2cc(N3CCC[C@@H]3COc3ccccn3)c(F)cc2c1=O [Example 27, (R)-6-fluoro-1-(6-hydroxypyrazin-2-yl)-4-oxo-7-(2-((pyridin-2-yloxy)methyl)pyrrolidin-1-yl)-1,4-dihydroquinoline-3-carboxylic acid]
